Reference: patent publication US20250241926A1, “HETEROCYCLIC COMPOUNDS FOR USE IN THE TREATMENT OF CANCER” (ARTIOS PHARMA LIMITED, priority 2021, published 2025)
Where two headings read alike, the source gives them in different places.

Molecular target: T1, Human Polθ polymerase domain (aa1820-2590) (Homo sapiens, UniProt O75417)
T1 construct: Human Polθ polymerase domain (aa1820-2590) was expressed in E. Coli; made in house; host or cells: E. coli
T1 sequence (O75417 1820-2590): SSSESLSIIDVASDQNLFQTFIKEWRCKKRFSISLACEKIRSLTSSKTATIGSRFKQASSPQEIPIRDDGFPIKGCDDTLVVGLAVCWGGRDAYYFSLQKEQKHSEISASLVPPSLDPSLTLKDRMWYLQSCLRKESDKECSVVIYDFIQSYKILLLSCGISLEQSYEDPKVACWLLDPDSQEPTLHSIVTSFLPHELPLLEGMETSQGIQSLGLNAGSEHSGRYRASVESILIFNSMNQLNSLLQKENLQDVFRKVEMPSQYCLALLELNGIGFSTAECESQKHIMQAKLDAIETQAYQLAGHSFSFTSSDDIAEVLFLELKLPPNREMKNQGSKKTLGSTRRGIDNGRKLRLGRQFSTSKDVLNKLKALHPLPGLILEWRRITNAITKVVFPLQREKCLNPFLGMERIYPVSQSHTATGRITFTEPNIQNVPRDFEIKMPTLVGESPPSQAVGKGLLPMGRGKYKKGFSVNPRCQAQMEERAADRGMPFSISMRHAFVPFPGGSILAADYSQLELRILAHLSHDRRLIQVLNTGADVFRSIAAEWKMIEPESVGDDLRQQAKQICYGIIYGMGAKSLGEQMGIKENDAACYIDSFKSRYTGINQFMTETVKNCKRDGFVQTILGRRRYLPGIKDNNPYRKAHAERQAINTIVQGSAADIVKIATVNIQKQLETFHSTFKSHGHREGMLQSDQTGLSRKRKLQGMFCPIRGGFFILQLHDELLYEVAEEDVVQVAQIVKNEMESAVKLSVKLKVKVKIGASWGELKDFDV
Experiment: Polθ Polymerase Domain Kinact/Kl Assay (PicoGreen)
Type: biochemical
Conditions: covalent inhibitors, kobs vs [I] fit, 0.8 nM Polθ, 100 nM DNA substrate
Method: Polθ Polymerase Domain Kinact/Kl Assay
A PicoGreen assay was used to measure the Kinact and Kl values of covalent compounds that inhibit the activity of Polθ in vitro.
Human Polθ polymerase domain (aa1820-2590) was expressed in E. Coli, purified, aliquoted and stored at −80° C. until required. Polθ substrate was generated from a 1.2:1 mix of DNA II Short to DNA II Long to give a final concentration of […] substrate in annealing buffer (20 mM Tris pH 7.5, 50 mM NaCl). The substrate was heated in 50 mL aliquots to 95° C. in a heating block for 5 min before the heating block switched off, the reaction left to cool to rt and stored at −20° C. until required.
Assay measurements were performed with 1× buffer comprising 25 mM Tris pH 7.5, 12.5 mM NaCl, […], 5% (v/v) glycerol, 0.01% v/v Triton x-100, 0.1 mg/ml BSA, 1 mM DTT. Test compounds were prepared by dilution in 100% DMSO to give a 12 μM intermediate stock of each (100× final top concentration). 100 nL of 23× 1:1.5-fold serial dilutions and a DMSO only control were dispensed using the Tecan dispenser into Greiner 384 well black low volume plates (product code 784076). DMSO concentration was maintained at 1% of the final assay volume by back filling with DMSO.
2× Working stock of substrate (200 nM of DNA substrate and […] dNTPs) and enzyme (1.4 nM Polθ) were made up in assay buffer. 5 μL/well of both enzyme and substrate 2× solutions were dispensed using a Tempest dispenser (Formulatrix) into assay plates that had been pre-dispensed with compound to give a final assay concentration of 100 nM DNA substrate, […] dNTPs and 0.8 nM Polθ. To stop the reaction, […] of a solution containing 25 mM Tris-HCl pH 7.5 and 20 mM EDTA was added at […] (t=0, 2.5, 5, 7.5, 10, 12.5, 15, 20, 25, 30, 35, 40, 45, 50, 55 and 60 min) using the Tempest's time delay function. The plates were covered during the time course to prevent evaporation. After completing the assay, 5 μL of detection reagent (25 mM Tris-HCl pH 7.5 and 2.5% (v/v) PicoGreen) was dispensed into the wells using a Tempest liquid handler (Formulatrix) and plates subsequently read on the CLARIOstar Plus (BMG Labtech) using the default optical settings for fluorescein and the auto gain/focus settings.
All data analysis was carried out using GraphPad Prism V. 8 (GraphPad Software Inc, San Diego, CA) Time course data for each inhibitor concentration was fitted to equation 1 to determine kobs values.^1 Any time points where the control (DMSO alone) reaction was no longer linear were excluded from the analysis.
A secondary plot of kobs vs [I] is used to determine the Kinact and Kl parameters (for a 2-step covalent inhibitor) by fitting to equation 2.1
[formula] • 1) Evaluation of Enzyme Inhibitors in Drug Discovery (Ch9), R. A Copeland, Wiley, 2nd Edition 2013.

| Compound | kinact/KI (read-out: Kinact/KI) [M⁻¹ s⁻¹] | kinact/KI [M⁻¹ s⁻¹] |
| --- | --- | --- |
| Cc1cc(C(F)(F)F)c(C#N)c(N[C@H]2CCN(CC(O)CN3CCN(C(=O)/C=C/CN(C)C)CC3)c3c(F)cccc3N(C)C2=O)n1 (single isomer, unassigned) [Example 32B] | 1e+06 |  |
| Cc1cc(C(F)(F)F)c(C#N)c(N[C@H]2CCN(CCOC3CN(C(=O)/C=C/CN(C)C)C3)c3ccccc3N(C)C2=O)n1 [Example 50, (S,E)-2-((6-(2-((1-(4-(Dimethylamino)but-2-enoyl)azetidin-3-yl)oxy)ethyl)-1-methyl-2-oxo-1,2,3,4,5,6-hexahydrobenzo[b][1,4]diazocin-3-yl)amino)-6-methyl-4-(trifluoromethyl)nicotinonitrile] | 110000 |  |
| C#CCOC(=O)N1CCN(CCN2CC[C@H](Nc3nc(C)cc(C(F)(F)F)c3C#N)C(=O)N(C)c3cccc(F)c32)CC12CN(C(=O)/C=C/CN(C)C)C2 [Example 27, (S,E)-Prop-2-yn-1-yl 8-(2-(4-((3-cyano-6-methyl-4-(trifluoromethyl)pyridin-2-yl)amino)-10-fluoro-6-methyl-5-oxo-3,4,5,6-tetrahydrobenzo[b][1,4]diazocin-1(2H)-yl)ethyl)-2-(4-(dimethylamino)but-2-enoyl)-2,5,8-triazaspiro[3.5]nonane-5-carboxylate] | 940000 |  |
| Cc1cc(C(F)(F)F)c(C#N)c(N[C@H]2CCN(CCN3CCN(C(=O)/C=C/CN(C)C)CC3)c3ccccc3N(C)C2=O)n1 [Example 5, (S,E)-2-((6-(2-(4-(4-(Dimethylamino)but-2-enoyl)piperazin-1-yl)ethyl)-1-methyl-2-oxo-1,2,3,4,5,6-hexahydrobenzo[b][1,4]diazocin-3-yl)amino)-6-methyl-4-(trifluoromethyl)nicotinonitrile] | 110000 |  |
| C=CC(=O)N1CC(N2CCN(CCN3CC[C@H](Nc4nc(C)cc(C(F)(F)F)c4C#N)C(=O)N(C)c4ccccc43)CC2)C1 [Example 20, (S)-2-((6-(2-(4-(1-Acrylo-ylazetidin-3-yl)piperazin-1-yl)ethyl)-1-methyl-2-oxo-1,2,3,4,5,6-hexa-hydrobenzo[b][1,4]diazocin-3-yl)amino)-6-methyl-4-(trifluorometh-yl)nicotinonitrile] | 500000 |  |
| C=CC(=O)N1CC2(CN(CCN3CC[C@H](Nc4nc(C)cc(C(F)(F)F)c4C#N)C(=O)N(CC)c4cccc(F)c43)CCN2)C1 [Example 70, (S)-2-((6-(2-(2-Acryloyl-2,5,8-triazaspiro[3.5]nonan-8-yl)ethyl)-1-ethyl-7-fluoro-2-oxo-1,2,3,4,5,6-hexahydrobenzo[b][1,4]diazocin-3-yl)amino)-6-methyl-4-(trifluoromethyl)nicotinonitrile] | 1.3e+06 |  |
| 2-(((3S)-6-(2-(7- ((E)-4-(Dimethyl- amino)but-2-eno- yl)-1-oxo-2,7- diazaspiro[4.4] nonan-2-yl)ethyl)- 7-fluoro-1- methyl-2-oxo- 1,2,3,4,5,6-hexa- hydrobenzo[b] [1,4]diazocin-3- yl)amino)-6-meth- yl-4-(trifluoro- methyl)nicotino- nitrile [Example 47] |  | 380000 |
| Cc1cc(C(F)(F)F)c(C#N)c(N[C@H]2CCN(CCCOC3CN(C(=O)/C=C/CN(C)C)C3)c3c(Cl)cccc3N(C)C2=O)n1 [Example 44, (S,E)-2-((7-Chloro-6-(3-((1-(4-(dimethylamino)but-2-enoyl)azetidin-3-yl)oxy)propyl)-1-methyl-2-oxo-1,2,3,4,5,6-hexahydrobenzo[b][1,4]diazocin-3-yl)amino)-6-methyl-4-(trifluoromethyl)nicotinonitrile] | 1.3e+06 |  |
| Cc1cc(C(F)(F)F)c(C#N)c(N[C@H]2CCN(CC(O)CN3CCN(C(=O)/C=C/CN(C)C)CC3)c3cc(F)ccc3N(C)C2=O)n1 (mixture of isomers) [Example 34A, 2-(((S)-6-((S/R)-3-(4-((E)-4-(Dimethylamino)but-2-enoyl)piperazin-1-yl)-2-hydroxypropyl)-8-fluoro-1-methyl-2-oxo-1,2,3,4,5,6-hexahydrobenzo[b][1,4]diazocin-3-yl)amino)-6-methyl-4-(trifluoromethyl)nicotinonitrile] |  | 190000 |
| COCCN(C)C/C=C/C(=O)N1CC(OCCCN2CC[C@H](Nc3nc(C)cc(C(F)(F)F)c3C#N)C(=O)N(C)c3cccc(F)c32)C1 [Example 56, (S,E)-2-((7-Fluoro-6-(3-((1-(4-((2-methoxyethyl)(methyl)amino)but-2-enoyl)azetidin-3-yl)oxy)propyl)-1-methyl-2-oxo-1,2,3,4,5,6-hexahydrobenzo[b][1,4]diazocin-3-yl)amino)-6-methyl-4-(trifluoromethyl)nicotinonitrile] | 1.1e+07 |  |
| 2-(((S)-6-(2-((R)-4-(1- Acryloylazetidin-3-yl)-2- methylpiperazin-1-yl)eth- yl)-7-fluoro-1-methyl-2- oxo-1,2,3,4,5,6-hexahydro- benzo[b][1,4]diazocin-3- yl)amino)-6-methyl-4- (trifluoromethyl)nicotino- nitrile [Example 15] |  | 280000 |
| Cc1cc(C(F)(F)F)c(C#N)c(N[C@H]2CCN(CCN3CC4(CN(C(=O)/C=C/CN(C)C)C4)OC3=O)c3c(F)cccc3N(C)C2=O)n1 [Example 24, (S,E)-2-((6-(2-(2-(4-(Dimethylamino)but-2-enoyl)-6-oxo-5-oxa-2,7-diazaspiro[3.4]octan-7-yl)ethyl)-7-fluoro-1-methyl-2-oxo-1,2,3,4,5,6-hexahydrobenzo[b][1,4]diazocin-3-yl)amino)-6-methyl-4-(trifluoromethyl)nicotinonitrile] | 630000 |  |
| Cc1cc(C(F)(F)F)c(C#N)c(N[C@H]2CCN(CCN(C)C(=O)[C@@H]3CCN(C(=O)/C=C/CN(C)C)C3)c3ccccc3N(C)C2=O)n1 [Example 30, (R)—N-(2-((S)-4-((3-Cyano-6-methyl-4-(trifluoromethyl)pyridin-2-yl)amino)-6-methyl-5-oxo-3,4,5,6-tetrahydrobenzo[b][1,4]diazocin-1(2H)-yl)ethyl)-1-((E)-4-(dimethylamino)but-2-enoyl)-N-methylpyrrolidine-3-carboxamide] | 690000 |  |
| Cc1cc(C(F)(F)F)c(C#N)c(N[C@H]2CCN(CCN3CCOC4(C3)CN(C(=O)/C=C/CN(C)C)C4)c3ccccc3N(C)C2=O)n1 [Example 3, (S,E)-2-((6-(2-(2-(4-(Dimethylamino)but-2-enoyl)-5-oxa-2,8-diazaspiro[3.5]nonan-8-yl)ethyl)-1-methyl-2-oxo-1,2,3,4,5,6-hexahydrobenzo[b][1,4]diazocin-3-yl)amino)-6-methyl-4-(trifluoromethyl)nicotinonitrile] | 1.1e+06 |  |
